Our source for the TGI and GI50 values is PubChem BioAssay (NCI).

Values joined by “and” are separate entries in the source; they are usually repeats but may differ in a detail not shown here. Equal values may be shown once.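 96-well plates; 48 h exposure; 5 concentrations. Endpoints by linear interpolation between flanking doses. Not reached: highest tested concentration assigned. GI50 is the concentration that inhibits growth by half. TGI: total growth inhibition.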 Starred links: 1 amine or outer side, 2 acyl side, 3 side chain; linkers in the order of their positions; H or OH if unused. Positions of bridges follow the written chain, without caps; N, C: chain ends. Non-standard residues stand in square brackets, D forms with d. Residues, ends and D or L forms follow the SMILES beside them. Chains are numbered I, II in the order given. Actinocin(1to9) = Cc1c2oc3c(C)ccc(C(=O)[*:2])c3nc-2c(C(=O)[*:1])c(N)c1=O; NMeV = CN[CH](C(=O)O)C(C)C; Sar = CNCC(=O)O

Test systems include SK-OV-3 ovarian; HOP-92 NSCLC; NCI-H522 lung; SN12C renal; HCT-15 colon; NCI/ADR-RES ovarian; MALME-3M melanoma; UACC-62 melanoma; UACC-257 melanoma; NCI-H226 lung.
What all share (experiment): NCI anticancer screen, dose series, 48 h

`COc1c(CC=C(C)C)c(O)c(C(CC(C)C)c2c(O)c3c(c(C(C)=O)c2O)OC(C(C)(C)O)C3)c(O)c1C(C)=O` (stereo not drawn): the TGI with SK-OV-3 ovarian was over 12.5 µM; in the assay with HOP-92 NSCLC, 6.43 µM; with NCI-H522 lung, over 12.5 µM; in the assay on SN12C renal, over 12.5 µM; in the assay with HCT-15 colon, over 12.5 µM; in the assay on NCI/ADR-RES ovarian, 11.1 µM. Further, the results for the TGI with MALME-3M melanoma, with UACC-62 melanoma and with UACC-257 melanoma were over 12.5 µM, over 12.5 µM and 12.4 µM, respectively.

On to `N#CC12Cc3cc4c(cc3-c3cccc(c31)CCN2C(=O)c1ccccc1)OCO4` (stereo not drawn), for which the TGI in the assay with SK-OV-3 ovarian is over 100 µM; in the assay on HOP-92 NSCLC, 89.5 µM; in the assay with SN12C renal, over 100 µM; in the assay on MALME-3M melanoma it was over 100 µM; with UACC-62 melanoma, over 100 µM; in the assay on UACC-257 melanoma it was over 100 µM. In the assay on NCI-H226 lung, this compound showed a TGI of over 100 µM.

`COCCNCc1ccc(-c2cc3nccc(Oc4ccc(NC(=S)NC(=O)Cc5ccc(F)cc5)cc4F)c3s2)nc1`: the GI50 in the assay with SK-OV-3 ovarian is 18.5 µM; in the assay on HOP-92 NSCLC, 1.22 µM; in the assay with NCI-H522 lung, 2.51 µM; with NCI/ADR-RES ovarian, 2.02 µM; in the assay on UACC-257 melanoma, 1.84 µM; in the assay on NCI-H226 lung it was 1.98 µM. For the same compound, the TGI turned out to be 34.4 µM in the assay with SK-OV-3 ovarian; 4.48 µM with HOP-92 NSCLC; 6.5 µM in the assay with NCI-H522 lung; 5.2 µM in the assay with NCI/ADR-RES ovarian; 3.52 µM in the assay on UACC-257 melanoma; 6.48 µM in the assay on NCI-H226 lung.

For the compound `COc1cc2oc(=O)ccc2cc1C(=O)CC(C)C`, the TGI with SK-OV-3 ovarian is over 100 µM; in the assay on HOP-92 NSCLC, over 100 µM; in the assay with NCI-H522 lung, 56.4 µM; with SN12C renal, over 100 µM; with HCT-15 colon it was over 100 µM; in the assay on NCI/ADR-RES ovarian, over 100 µM. Besides, the TGI in the assay with UACC-62 melanoma, in the assay with UACC-257 melanoma and in the assay on NCI-H226 lung was over 100 µM each time.

As for `CCC(C)C1NC(=O)C(NC(=O)c2c3nc4c(C(=O)NC5C(=O)NC(C(C)CC)C(=O)N6CCCC6C(=O)N(C)CC(=O)N(C)C(C(C)C)C(=O)OC5C)ccc(C)c4oc-3c(C)c(=O)c2N)C(C)OC(=O)C(C(C)C)N(C)C(=O)CN(C)C(=O)C2CCCN2C1=O` (stereo not drawn) (I: TIP[Sar][NMeV] / II: TIP[Sar][NMeV]; ester I:1-I:C, II:1-II:C; linker I:N-II:N via Actinocin(1to9); configuration not given here), the TGI in the assay with SK-OV-3 ovarian was 0.578 µM; in the assay with HOP-92 NSCLC it was 0.085 µM; in the assay with NCI-H522 lung it was 0.00176 µM; with SN12C renal, 0.192 µM and 0.263 µM; in the assay on HCT-15 colon, 10.3 µM; in the assay on NCI/ADR-RES ovarian, 2.63 µM. The TGI with MALME-3M melanoma came out at 0.0202 µM; in the assay on UACC-62 melanoma, 0.0105 µM; in the assay with UACC-257 melanoma, 0.00726 µM. Also, the GI50 in the assay with HCT-15 colon was 0.0109 µM.

In the case of `O=c1ccc2nc3cc(Br)ccc3sc-2c1`, the TGI with SK-OV-3 ovarian, with HOP-92 NSCLC, in the assay with NCI-H522 lung, in the assay with SN12C renal, in the assay on HCT-15 colon and in the assay with MALME-3M melanoma was over 100 µM in each case. Moreover, the TGI with UACC-62 melanoma, in the assay on UACC-257 melanoma and with NCI-H226 lung was over 100 µM throughout.

Turning to `OC(c1ccccc1)(c1ccccc1)c1nccc2ccccc12`, the TGI in the assay with SK-OV-3 ovarian was 70.2 µM; in the assay with NCI-H522 lung, 40.8 µM; in the assay on SN12C renal it was over 100 µM; with HCT-15 colon, over 100 µM; in the assay on NCI/ADR-RES ovarian, over 100 µM; in the assay on MALME-3M melanoma it was 68 µM. For the same compound, the TGI with UACC-62 melanoma and with UACC-257 melanoma was over 100 µM throughout.

In the case of `OCc1cn(C(c2ccccc2)(c2ccccc2)c2ccccc2)cn1`, the TGI in the assay on SK-OV-3 ovarian, in the assay with HOP-92 NSCLC, in the assay with NCI-H522 lung, in the assay with SN12C renal, in the assay on HCT-15 colon and in the assay with NCI/ADR-RES ovarian was over 100 µM throughout. For the same compound, the TGI in the assay with UACC-257 melanoma and in the assay with NCI-H226 lung was over 100 µM throughout.

For the compound `COc1ccc(C(=O)C2=NON3OC23C(=O)c2ccc(OC)cc2)cc1` (stereo not drawn), the TGI in the assay on SK-OV-3 ovarian was found to be 33.7 µM; with HOP-92 NSCLC, 5.16 µM; in the assay with NCI-H522 lung, 3.68 µM; in the assay with SN12C renal it was 28.6 µM; in the assay on HCT-15 colon, 36.6 µM; in the assay on MALME-3M melanoma, 25.7 µM. Besides, the values for the TGI in the assay on UACC-62 melanoma, in the assay on UACC-257 melanoma and in the assay with NCI-H226 lung were 37 µM, 34.9 µM and 33.3 µM, respectively.

On to `c1ccc(-c2nnn3c2NC2=C(CCCC2)C3c2ccccc2)cc1` (stereo not drawn), for which the TGI in the assay on SK-OV-3 ovarian amounted to 50.7 µM; in the assay on NCI-H522 lung, 19.9 µM; in the assay with SN12C renal, 51.1 µM; in the assay on HCT-15 colon, 3.04 µM; with NCI/ADR-RES ovarian, 52.4 µM; in the assay with UACC-62 melanoma it was 33.7 µM. For the same compound, the TGI in the assay with UACC-257 melanoma was 52.2 µM; with NCI-H226 lung it was over 100 µM.

As to `Nc1c(C(=O)O)nnc2cc(Cl)c(Cl)cc12`, the TGI in the assay with SK-OV-3 ovarian, with NCI-H522 lung, in the assay with SN12C renal, in the assay with HCT-15 colon, with NCI/ADR-RES ovarian and in the assay with MALME-3M melanoma was over 100 µM each time. The TGI in the assay with UACC-62 melanoma, in the assay on UACC-257 melanoma and in the assay with NCI-H226 lung was over 100 µM each time.
